Laboratory results taken from patent US20130130241A1, “ANDROGEN RECEPTOR ISOFORMS AND METHODS” (Regents of the University of Minnesota, priority 2010, published 2013).

How the values were obtained:
[1] = test system: patients with ADI prostate cancer; conditions: Phase II trial; Scher et al., 2010; cited from earlier work
[2] = test system: LNCaP cells expressing truncated AR isoforms; conditions: Watson et al., 2010; cited from earlier work
22Rv1 cells = conditions: Dehm et al., 2008; cited from earlier work
[3] = test system: androgen receptor target genes; conditions: 22Rv1 cells; Dehm et al., 2008; cited from earlier work
androgen receptor = assay: AR knock-down by siRNA in 22Rv1 cells, Western blot; assay type: cell-based, human; conditions: for expression of androgen receptor isoforms (Western blot): FIG. 3B
Experimental: FIG. 3. A) Schematic of androgen receptor mRNA isoforms expressed in 22Rv1 cells. DBD*, Exon 3-duplicated AR. B) 22Rv1 cells were electroporated with siRNAs targeted to Exons […]. androgen receptor and ERK-2 levels were determined. C) Rabbit antisera were raised against an Exon 2b-derived peptide. Equal amounts of 22Rv1 lysates were immunoprecipitated with crude antisera, or antibody purified on an immobilized Exon2b-peptide column, non-specific rabbit IgG, or a rabbit polyclonal antibody specific for the androgen receptor NTD. Western blots were performed with a mouse monoclonal antibody specific for the androgen receptor NTD.
We have investigated mechanisms of prostate cancer therapy resistance in cell- and xenograft-based models of prostate cancer progression with a focus on ligand-independent androgen receptor activation (Dehm and Tindall, 2006 J Biol Chem 281:27882-93; Dehm and Tindall, 2007 Mol Endocrinol 21:2855-63). One model of interest is the ADI 22Rv1 prostate cancer cell line, which was derived from an androgen-dependent CWR22 prostate cancer xenograft that relapsed during androgen depletion (Sramkoski et al., 1999 In Vitro Cell Dev Biol Anim 35:403-9). […] The Exon 1 and Exon 7 targeted siRNAs were purchased from Dharmacon, Inc. (Lafayette, Colo.). The sequences are as follows:
Truncated androgen receptor from 22Rv1 cells appears as a doublet in Western blot experiments (FIG. 3B). Because 3′ RACE experiments identified AR 1/2/2b and AR 1/2/3/2b as alternatively spliced androgen receptor isoforms in this cell line, we pursued the hypothesis that these two discrete bands represented AR 1/2/2b and AR 1/2/3/2b (Dehm et al., 2008 Cancer Res 68:5469-77). […] To this end, we tested siRNAs targeted to AR Exon 1, AR Exon 3, or AR Exon 7 (FIG. 3A).
Western blotting of CWR22Pc and 22Rv1 lysates with AR (Santa Cruz N-20), ERK-2 (Santa Cruz D-2), and ARV-7 (Precision Antibody #AG10008) antibodies was performed exactly as described (Dehm et al., 2008 Cancer Res 68:5469-77).

Row | Molecule | share of CRPCa patients with robust decrease in serum PSA levels (at least 50%), stabilized bone disease, conversion of CTC counts to favorable [1] | androgen-independent growth of LNCaP cells expressing truncated AR isoforms [2] | androgen-independent proliferation of 22Rv1 cells (22Rv1 cells) | androgen-independent expression of androgen receptor target genes [3] | expression of a ~80 kDa androgen receptor protein species (androgen receptor) | expression of androgen receptor isoforms (Western blot) (androgen receptor)
1 | CNC(=O)c1ccc(N2C(=S)N(c3ccc(C#N)c(C(F)(F)F)c3)C(=O)C2(C)C)cc1F [MDV3100] | one-half | inhibit |  |  |  | 
2 | AR Exon 1-targeted siRNA: Dharmacon siRNA duplex targeted to AR Exon 1; sense SEQ ID NO: 1, antisense SEQ ID NO: 2 (sense CAAGGGAGGUUACACCAAAUU; antisense UUUGGUGUAACCUCCCUUGUU; listed as RNA, chemistry not given here) |  |  | inhibited | inhibited | knocked-down | knocked down expression of all androgen receptor isoforms
3 | AR Exon 7-targeted siRNA: Dharmacon siRNA duplex targeted to AR Exon 7; sense SEQ ID NO: 3, antisense SEQ ID NO: 4 (sense GGAACUCGAUCGUAUCAUUUU; antisense AAUGAUACGAUCGAGUUCCUU; listed as RNA, chemistry not given here) |  |  | not | not |  | selectively knocked down expression of full-length androgen receptor
